# In patent US20020143059A1, “Skin care product containing retinoids, retinoid booster and phytoestrogens in a dual compartment package” (priority 2000, published 2002):
# Target: T1, CRABPII (Homo sapiens, UniProt P29373)
# T1 construct: made in house; host or cells: E. coli BLR(DE3)pLysS
# T1 sequence (P29373 1-138): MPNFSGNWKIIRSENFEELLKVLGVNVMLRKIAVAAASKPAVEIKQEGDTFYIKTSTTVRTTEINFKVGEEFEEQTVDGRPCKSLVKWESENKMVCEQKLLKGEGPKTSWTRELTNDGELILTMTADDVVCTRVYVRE
# Test: CRABPII antagonist radioactive binding assay
# Details: competition with radioactive all trans retinoic acid, ligand in excess
# Description: 2.6 Assay for CRABPII antagonists (To identify B4)
# 2.6.1 Synthesis of CRABPII
# The gene CRABPII was cloned in pET 29a-c(+) plasmid (Novagen). The cloned gene was under control of strong bacteriophage T7 transcription and translation signals. The source of T7 polymerase was provided by the host cell E.coli BLR(DE3)pLysS (Novagen). The latter has a chromosomal copy of T7 polymerase under lacUV5 control, induced by the presence of IPTG. The plasmid was transferred into E. coli BLR(DE3)pLysS cells by transformation according to the manufacturer protocol (Novagen).
# An overnight culture of the transformed cells was diluted 1:100 into 2xYT containing 50 μg/mL kanamycin and 25 μg/mL chloramphenicol. The cells grew while shaking at 37° C. until the OD at 600 nm reached 0.6-0.8. Then IPTG was added to a final concentration of 1 mM and the culture was incubated for an additional two hours. The cells were harvested by centrifugation at 5000 g for 10 minutes at room temperature. The pellet was stored at −20° C. […]
# The supernatant from step a. was loaded onto a 2.5×100 cm column of sephacryl S-300 (Pharmacia) at room temperature. […] Collected 2-mL fractions were checked for ultraviolet absorbance at 280 nm. […]
# For the competitive assay, another ligand in excess (6670:1, 670:1 or 70:1) was added to the mix. […] The radioactivity of the filtrate was measured by scintillation counter.
smiles,measurement,value
CCCCCCC(O)CCCCCCCCCCC(=O)O (stereo not shown) [12-Hydroxystearic Acid],% Inhibition CRABPII,>50%
